Reference: patent publication US20260109714A1, “PYRIMIDINE-FUSED RING COMPOUND, AND PREPARATION METHOD THEREFOR AND USE THEREOF” (GENFLEET THERAPEUTICS (SHANGHAI) INC., priority 2022, published 2026)

Tests used:
[1] = Pharmacokinetic evaluation test in mice
Description: (§2) Test objective: Male CD-1 mice were used as test animals. The drug concentrations in plasma of mice at various times were determined by LC/MS/MS after intravenous and oral administration of the test compounds. The pharmacokinetic behavior of the test compounds in mice was studied and their pharmacokinetic characteristics were evaluated.
(§3) Test methods: test animals: 60 healthy adult male CD-1 mice, aged 6-8 weeks and weighing about 30 g, and divided into 10 groups, including IV groups (intravenous injection group, five groups), with 6 mice in each group; and PO groups (oral administration group, five groups), with 6 mice in each group.
(§4) Preparation of drug solution: IV group: Taking 10 mL sample solution as an example, 2 mg sample was weighed, 0.5 mL DMSO and 1 mL Solutol HS 15 were sequentially added, and then 8.5 mL 6% HP-β-CD was added, and stirred ultrasonically to obtain a clear solution of 0.2 mg/mL.
(§5) PO group 1: Taking 10 mL sample solution as an example, 10 mg sample was weighed, 0.5 mL DMSO and 1 mL Solutol HS 15 were sequentially added, and then 8.5 mL 6% HP-β-CD was added, and stirred ultrasonically to obtain a 1 mg/mL solution.
(§6) PO group 2: A 3 mg/mL solution of the sample was prepared according to the preparation method for PO group 1.
(§7) Administration: After overnight fasting, the mice in the IV group were administered with a volume of 5 mL/kg at a dose of 1 mg/kg.
(§8) PO group 1: The mice were administered with a volume of 10 mL/kg at a dose of 10 mg/kg.
(§9) PO group 2: The mice were administered with a volume of 10 mL/kg at a dose of 30 mg/kg.
(§10) Experimental operations: Male CD-1 mice in the intravenous injection group and oral administration group were given the test compound, respectively. After that, 50 μl of blood was periodically collected into a K2EDTA anticoagulation tube at 0.0833, 0.25, 0.5, 1, 2, 4, 6, 8 and 24 hrs, and the plasma was separated by centrifugation at 4° C. and 8000 rpm for 15 min. The plasma was stored in dry ice at −80° C. 4 hrs after administration, the animals were allowed to free access to food. The contents of the test compounds in plasma of mice after intravenous and oral administration were determined by LC/MS/MS. The linear range of the method was 1-3000 ng/ml. The plasma samples were treated with acetonitrile to precipitate the protein and then analyzed.

[2] = system: AsPC-1 human pancreatic cancer cell with KRAS G12D mutation; assay: Cell proliferation inhibition experiment, 3D CellTiter-Glo, AsPC-1; assay type: cell-based; details: AsPC-1 cells, 3D spheroid, 5 days
Outline: (§1)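 3D spheroids (800 AsPC-1 or 400 AGS cells/well) established overnight, then treated with 3.16-fold compound dilutions (0.1% DMSO) for 5 days. Viability read by CellTiter-Glo 3D luminescence; inhibition normalised to DMSO and medium blank, IC50 by four-parameter fit.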

[3] = system: AGS human gastric cancer cell line with KRAS G12D mutation; assay: Cell proliferation inhibition experiment, 3D CellTiter-Glo, AGS; assay type: cell-based; details: AGS cells, 3D spheroid, 5 days
Outline: as §1

AGS p-ERK = assay: Cell assay for p-ERK (HTRF, Advance ERK phospho-T202/Y204 kit); assay type: cell-based, human; details: AGS cells (KRAS G12D), 3 hrs with compound, inhibition of p-ERK level
Outline: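 KRAS G12D AGS gastric cancer cells were plated overnight, then exposed 3 h to 3.16-fold compound dilutions at 0.1% DMSO final. Lysates were probed for ERK phospho-T202/Y204 by HTRF after 4 h. Inhibition relative to DMSO and blank was fitted by four-parameter regression for IC50.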

in vivo = details: male, CD-1, mouse, po, 30 mg/kg
Description: as §2, §3, §4, §5, §6, §7, §8, §9, §10

[4] = male, CD-1, mouse, plasma, po, 10 mg/kg

Row | F (%) bioavailability ([1]; PO group, 10 mpk, male CD-1 mice) | AUClast ([1]; PO group, 10 mpk, male CD-1 mice, plasma) | IC50 [2] | IC50 [3] | IC50 (AGS p-ERK) | SMILES | AUC(0-t) [1, 4] | bioavailability [1, 4] | IC50 ([2]; Homo sapiens, ASPC1, 120 h) | AUC(0-t) (in vivo) | bioavailability (in vivo) | IC50 ([3]; Homo sapiens, 120 h) | IC50 (AGS p-ERK; Homo sapiens)
1 | 0.9% | 40.4 ng·h/mL | 32.8 nM | 2.53 nM | 1.58 nM | C#Cc1c(F)ccc2cc(O)cc(-c3nc4c5c(nc(OC[C@@]67CCCN6C[C@H](F)C7)nc5c3F)N3C[C@H]5CC[C@H](N5)[C@H]3CO4)c12 [Z131-1, 5-ethynyl-6-fluoro-4-((5aS,6S,9R)-1-fluoro-12-(((2R,7aS)-2-fluorotetrahydro-1H-pyrrolizin-7a(5H)-yl)methoxy)-5a,6,7,8,9,10-hexahydro-5H-4-oxo-3,10a,11,13,14-pentaaza-6,9-methanonaphtho[1,8-ab]hepten-2-yl)naphthalen-2-ol] |  |  |  |  |  |  | 
2 |  |  |  |  |  | CCc1cccc2cc(O)cc(-c3nc4c5c(nc(OC[C@@]67CCCN6C[C@H](F)C7)nc5c3F)N3C[C@H]5CC[C@H](N5)[C@H]3CO4)c12 [Z140-1, 5-ethyl-4-((5aS,6S,9R)-1-fluoro-12-(((2R,7aS s)-2-fluorotetrahydro-1H-pyrrolizin-7a(5H)-yl)methoxy)-5a,6,7,8,9,10-hexahydro-5H-4-oxa-3,10a,11,13,14-pentaaza-6,9-methanonaphtho[1,8-ab]hepten-2-yl)naphthalen-2-ol] | 42.1 ng·h/mL | 2.33% |  |  |  |  | 
3 |  |  |  |  |  | [2H]C([2H])([2H])[C@@H]1Oc2nc(-c3cc(N)cc(Cl)c3C(F)(F)F)c(F)c3nc(OC[C@@]45CCCN4CC(=C(F)F)C5)nc(c23)N2C[C@H]3CC[C@H](N3)[C@@H]12 [Z1054, 3-chloro-5-((5S,5aS,6S,9R)-12-(((S)-2-(difluoromethylene)tetrahydro-1H-pyrrolizin-7a(5H)-yl)methoxy)-1-fluoro-5-(methyl-d3)-5a,6,7,8,9,10-hexahydro-5H-4-oxa-3,10a,11,13,14-pentaaza-6,9-methanonaphtho[1,8-ab]hepten-2-yl)-4-(trifluoromethyl) aniline] |  |  | 1.29 nM | 3250 ng·h/mL | 29.4% | 0.37 nM | 0.43 nM
4 |  |  |  |  |  | C[C@@H]1Oc2nc(-c3cc(N)cc(Cl)c3C(F)(F)F)c(F)c3nc(OC[C@@]45CCCN4CC(=C(F)F)C5)nc(c23)N2C[C@H]3CC[C@H](N3)[C@@H]12 [Z1084, 3-chloro-5-((5S,5aS,6S,9R)-12-(((S)-2-(difluoromethylene)tetrahydro-1H-pyrrolizin-7a(5H)-yl)methoxy)-1-fluoro-5-methyl-5a,6,7,8,9,10-hexahydro-5H-4-oxa-3,10a,11,13,14-pentaaza-6,9-methanonaphtho[1,8-ab]hepten-2-yl)-4-(trifluoromethyl) aniline] |  |  | 1.23 nM | 2440 ng·h/mL | 20.7% | 0.38 nM | 0.12 nM
